From patent EP4733297A1, “INTEGRIN-INHIBITING SMALL MOLECULE COMPOUND” (Antibody Therapeutics, Inc., priority 2023, dated 2024)

Assays:
[1] = test system: unilateral ureteral obstruction (UUO) model; assay: 10-day administration experiment in unilateral ureteral obstruction (UUO) model; assay type: in vivo, mice; conditions: kidney, 10 days after ligation; subcutaneous 1 or 5 mg/kg twice per day for 9 days
Description: In this Example, over a period of 10 days, the compound of the present invention (IBF-17) was administered to mice in which the ureter on one side was ligated, and the state of tissue fibrosis was observed. More specifically, mice under deep anesthesia were laparotomized, and two sites of the left ureter were ligated using a nylon thread, and the abdomen was sutured. From 1 day after ligation, IBF-17 was subcutaneously administered daily at 1 or 5 mg/kg twice per day (with an interval of 8 hours) for 9 days. At 10 days after ligation, the kidney was collected and expression of genes regarded as fibrosis markers (Acta2, Col1a1, Col3a1, Ddr2, Tgfb1, Tnc, Trpc6, and Loxl1) was analyzed by qPCR.

[2] = test system: carbon tetrachloride (CCl4) administration model; assay: 8-week administration experiment in carbon tetrachloride (CCl4) administration model; assay type: in vivo, mice; conditions: oral, 8 weeks
Description: In this Example, over a period of 8 weeks, carbon tetrachloride (CCl4) for inducing fibrosis in the liver and compounds of the present invention (IBF-17, IBF-18, and IBF-20) were administered to mice, and the state of tissue fibrosis was observed.
To mice, carbon tetrachloride (diluted 4-fold with olive oil) was intraperitoneally administered at 1 mL/kg twice per week (for example, Monday and Friday, or Tuesday and Friday) for a total of 8 weeks. Throughout the entire test period, IBF-17, IBF-18, or IBF-20 was orally administered daily at 1 or 10 mg/kg twice per day (with an interval of 8 hours). After completion of the experiment, the liver was collected, and the amount of collagen was quantified by hydroxyproline measurement, and a specimen was stained with Sirius red to quantify the fibrotic area. In addition, expression of fibrosis markers, Col1a1 and Acta2 (α-SMA) genes, was analyzed by qPCR.

[3] = test system: bleomycin administration model; assay: 10-day administration experiment in bleomycin administration model; assay type: in vivo, mice; conditions: oral 5 mg/kg twice per day, 5 days per week, from 1 week after bleomycin
Description: In this Example, to mice administered with bleomycin for inducing fibrosis in the lung, the compound of the present invention (IBF-17) was administered for a total of 10 days over a period of 2 weeks from 1 week after bleomycin administration, and the state of tissue fibrosis was observed.
Specifically, under deep anesthesia, the neck of mice was incised, bleomycin (diluted with physiological saline) was intratracheally administered once at 1.5 U/kg, and the neck was sutured. From 1 week after bleomycin administration (the time when fibrosis begins to occur), IBF-17 was orally administered at 5 mg/kg twice per day (with an interval of 8 hours) for 5 days per week (Monday to Friday). After completion of the experiment, the lung was collected and expression of fibrosis-related genes (Acta2, Col1a1, Col3a1, and Tnc) was analyzed by qPCR. Further, lung sections were prepared, collagen was stained by Masson-trichrome staining, and the fibrotic area was quantified.

[4] = test system: TGFβ activation by integrin expressed in lung fibroblasts; assay: Effect on TGFβ activation: luciferase reporter coculture of lung fibroblasts and CCL64 reporter cells; assay type: cell-based, male Wistar rats
Description: In this Example, lung fibroblasts were used as integrin-expressing cells, and the effect of IBF-17, which is a compound of the present invention, on TGFβ activity was examined. Fibroblasts isolated from lungs of male Wistar rats and cultured for 7 days were seeded at 2×10^3 cells per well and incubated for 5 days. After 5 days, IBF-17 or C8 (a known αvβ1 inhibitor) was added so as to give final concentrations of 2, 20, or 200 nM, and 2 hours thereafter, TGFβ-responsive luciferase-producing reporter cells CCL64 were seeded at 2×10^4 cells and cocultured for 18 hours. After that, the cells were lysed, luciferase assay reagent (Promega Corporation) was added, and luciferase activity was measured using a luminometer. The structure of C8, which is a known αvβ1 inhibitor, is as follows. [drawing 43]

NASH model = assay: 8-week administration experiment in NASH model (CDAHFD diet); assay type: in vivo, mice; conditions: oral, 8 weeks
Description: In this Example, over a period of 8 weeks, while providing mice with CDAHFD (choline-deficient amino acid-restricted high-fat diet), compounds of the present invention (IBF-17, IBF-18, and IBF-20) were administered, and the state of tissue fibrosis was observed. More specifically, mice were fed with a special diet CDAHFD (Research Diets) for inducing a human NASH-like pathological condition for a total of 8 weeks, replacing with new diet twice per week (for example, Monday and Friday, or Tuesday and Friday). Throughout the entire test period, IBF-17, IBF-18, or IBF-20 was orally administered daily at 1, 3, or 10 mg/kg twice per day (with an interval of 8 hours). After completion of the experiment, the amount of collagen in the liver was quantified by hydroxyproline measurement, and, for IBF-17, in addition to staining specimens with Sirius red, which specifically stains collagen, to quantify the fibrotic area, expression of genes regarded as fibrosis markers (Acta2, Col1a1, and Timp-1) was analyzed by qPCR. In addition, body weight of each mouse during the feeding period (CDAHFD temporarily decreases at the initial stage of feeding) was measured, and the weight of the collected liver was measured.

[5] = test system: carbon tetrachloride (CCl4) administration model; assay: 15-day administration experiment in carbon tetrachloride (CCl4) administration model (therapeutic); assay type: in vivo, mice; conditions: oral 5 mg/kg twice per day, 5 days per week, from week 4 of 6 weeks of CCl4
Description: In this Example, over a period of 6 weeks, carbon tetrachloride (CCl4) for inducing fibrosis in the liver was administered to mice, and the compound of the present invention (IBF-17) was administered for a total of 15 days over 3 weeks in the latter half of the test, and the state of tissue fibrosis was observed. While Example 4 is examination of a prophylactic effect in which the compound is administered from the start of the test, this Example is examination of a therapeutic effect in which the compound is administered after 3 weeks have passed since administration of carbon tetrachloride (in a state where liver fibrosis has occurred). Specifically, to mice, carbon tetrachloride (diluted 4-fold with olive oil) was intraperitoneally administered at 1 mL/kg twice per week (for example, Monday and Friday, or Tuesday and Friday) for a total of 6 weeks. From week 4 of the start of the test, IBF-17 was orally administered at 5 mg/kg twice per day (with an interval of 8 hours) for 5 days per week (Monday to Friday). After completion of the experiment, the liver was collected and the amount of collagen was quantified by hydroxyproline measurement.

[6] = test system: rat lung-derived fibroblasts; assay: Differentiation of fibroblasts into myofibroblasts, α-SMA western blotting; assay type: cell-based; conditions: TGFβ stimulation 96 hours
Description: In this Example, the effect of IBF-17, which is a compound of the present invention, on differentiation of fibroblasts into myofibroblasts was examined. The medium was replaced with a serum-free medium, and rat lung-derived fibroblasts isolated in Example 2 were cultured for 24 hours. After culturing, IBF-17 was added so as to give final concentrations of 2, 20 nM, or 200 nM, and C8 was added so as to give final concentrations of 2, 20, or 200 nM, followed by reaction for 2 hours. After the reaction, recombinant human TGFβ1 was added so as to give a final concentration of 5 ng/mL, and stimulation was carried out for 96 hours to induce differentiation into myofibroblasts. After induction of differentiation, protein was extracted from the cells and western blotting was performed, a band of α-SMA, which is a differentiation marker, was detected, and the band was quantified as a relative band intensity with respect to glyceraldehyde-3-phosphate dehydrogenase (GAPDH), which is a control.
From this Example, differentiation of fibroblasts into myofibroblasts (by […] TGFβ) was evaluated using α-smooth muscle actin as marker.

[7] = test system: carbon tetrachloride (CCl4) administration model; assay: 3-day administration experiment in carbon tetrachloride (CCl4) administration model; assay type: in vivo, mice; conditions: liver, 72 hours after CCl4; subcutaneous 1 mg/kg twice per day
Description: In this Example, carbon tetrachloride (CCl4) for inducing fibrosis in the liver was administered once to mice, and thereafter, the compound of the present invention (IBF-17) was administered for 3 days, and then the liver was collected and observed. More specifically, carbon tetrachloride (diluted 4-fold with olive oil) was intraperitoneally administered once at 2 mL/kg to mice that had been fasted for half a day from the day before the test. IBF-17 was subcutaneously administered daily at 1 mg/kg twice per day (with an interval of 8 hours), including the day of carbon tetrachloride administration. At 72 hours after carbon tetrachloride administration, the mice were dissected and the liver was collected, and expression of fibrosis marker genes (Acta2, Col1a1, Col3a1, Tgfb1, Loxl1, and Ddr2) was analyzed by qPCR.

interstitial pneumonia = conditions: reported July 2022; cited from earlier work
[8] = liver, 1 or 10 mg/kg twice per day

Compound: O=C(O)C[C@H](NC(=O)CNC(=O)c1cc(O)cc(NC2=NCC(F)CN2)c1)c1cccc(S(F)(F)(F)(F)F)c1 (stereo partly drawn) [IBF-17, (3S)-3-(2-{3-[(5-fluoro-1,4,5,6-tetrahydropyrimidin-2-yl)amino]-5-hydroxybenzamido}acetamido)-3-[3-(pentafluorosulfanyl)phenyl]propanoic acid]
- mRNA expression of Acta2 (qPCR) [1]: decreasing tendency
- mRNA expression of Col1a1 (qPCR) [1]: significant decreases
- mRNA expression of Col3a1 (qPCR) [1]: significant decreases
- mRNA expression of Ddr2 (qPCR) [1]: significant decreases
- mRNA expression of Loxl1 (qPCR) [1]: significant decreases
- mRNA expression of Tgfb1 (qPCR) [1]: decreasing tendency
- mRNA expression of Tnc (qPCR) [1]: decreasing tendency
- mRNA expression of Trpc6 (qPCR) [1]: decreasing tendency
- mRNA expression of Acta2 (qPCR) [2, 8]: tends to be decreased
- mRNA expression of Col1a1 (qPCR) [2, 8]: tends to be decreased
- amount of hydroxyproline in liver tissue ([2]; 1 mg/kg twice per day): showed an effect
- amount of hydroxyproline in liver tissue ([2]; 1 or 10 mg/kg twice per day): decreased the amount of hydroxyproline
- Sirius red-stained area of liver tissue ([2]; both 1 mg/kg and 10 mg/kg twice per day, versus non-administration group, decrease followed the dose): decreased
- mRNA expression of Col1a1 (qPCR) ([3]; lung): significantly decreased
- mRNA expression of Col3a1 (qPCR) ([3]; lung): significantly decreased
- fibrotic area of lung (Masson-trichrome staining) [3]: significantly decreased
- activation of TGFβ (luciferase activity) ([4]; 200 nM): almost completely inhibited
- activation of TGFβ (luciferase activity) ([4]; concentration range of 2 to 200 nM, coculture 18 hours): suppressed activation of TGFβ in a concentration-dependent manner
- hydroxyproline amount of liver tissue (NASH model; any dose (1, 3, and 10 mg/kg) twice per day, versus no administration): decreases in hydroxyproline amount were observed
- mRNA expression of fibrosis markers (Acta2, Col1a1, Timp-1) (qPCR) (NASH model; any of 1, 3, and 10 mg/kg twice per day): uniformly decreased fibrosis markers
- fibrotic area in tissue specimens (Sirius red) (NASH model; any of 1, 3, and 10 mg/kg twice per day, versus non-administration group): reduced the fibrotic area
- amount of hydroxyproline in mouse liver [5]: significantly decreased
- inhibition of differentiation of fibroblasts into myofibroblasts (α-SMA band intensity) ([6]; 2 nM): inhibition of differentiation was observed
- inhibition at 0.02 µM ([6]; Rattus norvegicus, Fibroblast, 20 nM, read-out: inhibition of differentiation of fibroblasts into myofibroblasts (α-SMA band intensity)): ≥ 80%
- mRNA expression of Col1a1 (qPCR) [7]: clearly decreased
- mRNA expression of Col3a1 (qPCR) [7]: clearly decreased
- mRNA expression of six fibrosis markers (Acta2, Col1a1, Col3a1, Tgfb1, Loxl1, Ddr2) (qPCR) [7]: all of these markers were decreased

Compound: COCCN(CCCCc1ccc2c(n1)NCCC2)CC[C@H](Nc1ncnc2ccccc12)C(=O)O [PLN-74809]
- efficacy in early Phase 2a of a clinical trial (interstitial pneumonia): proven efficacy
